# Measurements reported in the NIST ThermoML archive (doi:10.1016/j.fluid.2013.01.015).
# Numbers after ± are expanded uncertainties.
# What was measured:
# [1] = 298.15 K; 101.33 kPa; Liquid; Vibrating tube method
# [2] = refractive index (Na D-line) (dimensionless); conditions: 298.15 K; 101.33 kPa; Liquid; Standard Abbe refractometry
Structure (SMILES),mass density [1] [kg/m3],refractive index [2]
"Cc1cccc(C)c1 [1,3-dimethylbenzene]",859.95 ± 0.14,1.49464 ± 0.00072
"Cc1ccc(C)cc1 [1,4-dimethylbenzene]",856.71 ± 0.14,1.4958 ± 0.0007
"Cc1ccccc1C [1,2-dimethylbenzene]",859.54 ± 0.14,1.49466 ± 0.00072
CCCCCCCC [octane],698.61 ± 0.17,1.3951 ± 0.0007
